Assay results reported in the supplement of paper PMC10733146.

Experiments:
Assay in all cases: viability relative to DMSO control (fraction); higher = less drug effect (more viable cells)
Conditions in all cases: 48 h
[1] = tested on: primary ALL patient cells (S048)
Method in brief: (§1)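 Compounds were pre-plated at five concentrations, one well each, in 384-well plates, and primary mononuclear tumour cells were plated on them at 4 × 10^4 cells per well. The cells, fresh or cryopreserved, had been Ficoll-isolated from blood or bone marrow or taken from processed lymph node. After 48 h at 37 °C and 5% CO2 in RPMI-1640 with penicillin/streptomycin, L-glutamine and human serum, viability was read as CellTiter-Glo luminescence relative to the median of 16 inner DMSO wells.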

[2] = tested on: primary AML patient cells (S006)
Method in brief: as §1

[3] = tested on: primary AML patient cells (S009)
Method in brief: as §1

[4] = tested on: primary AML patient cells (S012)
Method in brief: as §1

[5] = tested on: primary AML patient cells (S037)
Method in brief: as §1

[6] = tested on: primary AML patient cells (S055)
Method in brief: as §1

[7] = tested on: primary AML patient cells (S056)
Method in brief: as §1

[8] = tested on: primary AML patient cells (S072)
Method in brief: as §1

[9] = tested on: primary AML patient cells (S079)
Method in brief: as §1

[10] = tested on: primary AML patient cells (S089)
Method in brief: as §1

[11] = tested on: primary AML patient cells (S091)
Method in brief: as §1

[12] = tested on: primary CLL patient cells (S031)
Method in brief: as §1

[13] = tested on: primary DLBCL patient cells (S082)
Method in brief: as §1

[14] = tested on: primary FL patient cells (S022)
Method in brief: as §1

[15] = tested on: primary FL patient cells (S087)
Method in brief: as §1

[16] = tested on: primary MCL patient cells (S041)
Method in brief: as §1

[17] = tested on: primary MCL patient cells (S053)
Method in brief: as §1

[18] = tested on: primary MCL patient cells (S063)
Method in brief: as §1

[19] = tested on: primary MCL patient cells (S068)
Method in brief: as §1

[20] = tested on: primary T-PLL patient cells (S008)
Method in brief: as §1

## Nc1cccc2c1CN(C1CCC(=O)NC1=O)C2=O (stereo not given) [Lenalidomide]
[1]; 0.008 µM
  viability: 0.895
[1]; 0.04 µM
  viability: 0.751
[1]; 0.2 µM
  viability: 0.609
[1]; 1 µM
  viability: 0.548
[1]; 5 µM
  viability: 0.488
[2]; 0.008 µM
  viability: 0.847
[2]; 0.04 µM
  viability: 0.602
[2]; 0.2 µM
  viability: 0.463
[2]; 1 µM
  viability: 0.633
[2]; 5 µM
  viability: 0.372
[3]; 0.008 µM
  viability: 0.927
[3]; 0.04 µM
  viability: 0.871
[3]; 0.2 µM
  viability: 0.817
[3]; 1 µM
  viability: 0.723
[3]; 5 µM
  viability: 0.786
[4]; 0.008 µM
  viability: 0.913
[4]; 0.04 µM
  viability: 0.956
[4]; 0.2 µM
  viability: 0.874
[4]; 1 µM
  viability: 0.946
[4]; 5 µM
  viability: 0.981
[5]; 0.008 µM
  viability: 1.03
[5]; 0.04 µM
  viability: 1.31
[5]; 0.2 µM
  viability: 0.912
[5]; 1 µM
  viability: 1.03
[5]; 5 µM
  viability: 0.867
[6]; 0.008 µM
  viability: 1.01
[6]; 0.04 µM
  viability: 0.945
[6]; 0.2 µM
  viability: 0.916
[6]; 1 µM
  viability: 0.943
[6]; 5 µM
  viability: 0.928
[7]; 0.008 µM
  viability: 1.04
[7]; 0.04 µM
  viability: 1.24
[7]; 0.2 µM
  viability: 0.961
[7]; 1 µM
  viability: 0.98
[7]; 5 µM
  viability: 0.84
[8]; 0.008 µM
  viability: 1.12
[8]; 0.04 µM
  viability: 1.14
[8]; 0.2 µM
  viability: 1.1
[8]; 1 µM
  viability: 1.13
[8]; 5 µM
  viability: 1.15
[9]; 0.008 µM
  viability: 1.02
[9]; 0.04 µM
  viability: 1.02
[9]; 0.2 µM
  viability: 1.08
[9]; 1 µM
  viability: 1.08
[9]; 5 µM
  viability: 1.08
[10]; 0.008 µM
  viability: 0.916
[10]; 0.04 µM
  viability: 0.727
[10]; 0.2 µM
  viability: 0.724
[10]; 1 µM
  viability: 0.559
[10]; 5 µM
  viability: 0.737
[11]; 0.008 µM
  viability: 1.09
[11]; 0.04 µM
  viability: 1.1
[11]; 0.2 µM
  viability: 1.11
[11]; 1 µM
  viability: 0.943
[11]; 5 µM
  viability: 1.1
[12]; 0.008 µM
  viability: 1.09
[12]; 0.04 µM
  viability: 1.08
[12]; 0.2 µM
  viability: 1.08
[12]; 1 µM
  viability: 1.04
[12]; 5 µM
  viability: 1.01
[13]; 0.008 µM
  viability: 1.1
[13]; 0.04 µM
  viability: 1.07
[13]; 0.2 µM
  viability: 1.08
[13]; 1 µM
  viability: 1.14
[13]; 5 µM
  viability: 1.1
[14]; 0.008 µM
  viability: 0.956
[14]; 0.04 µM
  viability: 0.99
[14]; 0.2 µM
  viability: 0.97
[14]; 1 µM
  viability: 1
[14]; 5 µM
  viability: 1.05
[15]; 0.008 µM
  viability: 1
[15]; 0.04 µM
  viability: 0.963
[15]; 0.2 µM
  viability: 0.926
[15]; 1 µM
  viability: 0.956
[15]; 5 µM
  viability: 0.87
[16]; 0.008 µM
  viability: 1.01
[16]; 0.04 µM
  viability: 0.929
[16]; 0.2 µM
  viability: 0.888
[16]; 1 µM
  viability: 0.953
[16]; 5 µM
  viability: 0.863
[17]; 0.008 µM
  viability: 1.13
[17]; 0.04 µM
  viability: 0.965
[17]; 0.2 µM
  viability: 0.862
[17]; 1 µM
  viability: 0.817
[17]; 5 µM
  viability: 0.688
[18]; 0.008 µM
  viability: 1.14
[18]; 0.04 µM
  viability: 1.09
[18]; 0.2 µM
  viability: 1.08
[18]; 1 µM
  viability: 1.11
[18]; 5 µM
  viability: 1.11
[19]; 0.008 µM
  viability: 1.02
[19]; 0.04 µM
  viability: 0.803
[19]; 0.2 µM
  viability: 0.832
[19]; 1 µM
  viability: 0.764
[19]; 5 µM
  viability: 0.736
[20]; 0.008 µM
  viability: 0.988
[20]; 0.04 µM
  viability: 0.995
[20]; 0.2 µM
  viability: 0.907
[20]; 1 µM
  viability: 0.836
[20]; 5 µM
  viability: 0.798
